From ChEMBL document CHEMBL2073782, “Comparative inhibitory effects of different compounds on rat oatpl (slc21a1)- and Oatp2 (Slc21a5)-mediated transport” (Pharm Res, 2002)

Experiments:
[1] = molecular target: T1, Oatp1 (Solute carrier organic anion transporter family member 1A1) (Rattus norvegicus, UniProt P46720); experiment: TP_TRANSPORTER: inhibition of E217betaG uptake (E217betaG: 0.1 uM, Verapamil: 1000 uM) in Oatp1-expressing LLC-PK1 cells; format: functional, cell-based; set-up: scale not given: the % may be the effect or the level left; details: pig, probe E217betaG, read-out: Activity
T1 sequence (P46720 whole entry): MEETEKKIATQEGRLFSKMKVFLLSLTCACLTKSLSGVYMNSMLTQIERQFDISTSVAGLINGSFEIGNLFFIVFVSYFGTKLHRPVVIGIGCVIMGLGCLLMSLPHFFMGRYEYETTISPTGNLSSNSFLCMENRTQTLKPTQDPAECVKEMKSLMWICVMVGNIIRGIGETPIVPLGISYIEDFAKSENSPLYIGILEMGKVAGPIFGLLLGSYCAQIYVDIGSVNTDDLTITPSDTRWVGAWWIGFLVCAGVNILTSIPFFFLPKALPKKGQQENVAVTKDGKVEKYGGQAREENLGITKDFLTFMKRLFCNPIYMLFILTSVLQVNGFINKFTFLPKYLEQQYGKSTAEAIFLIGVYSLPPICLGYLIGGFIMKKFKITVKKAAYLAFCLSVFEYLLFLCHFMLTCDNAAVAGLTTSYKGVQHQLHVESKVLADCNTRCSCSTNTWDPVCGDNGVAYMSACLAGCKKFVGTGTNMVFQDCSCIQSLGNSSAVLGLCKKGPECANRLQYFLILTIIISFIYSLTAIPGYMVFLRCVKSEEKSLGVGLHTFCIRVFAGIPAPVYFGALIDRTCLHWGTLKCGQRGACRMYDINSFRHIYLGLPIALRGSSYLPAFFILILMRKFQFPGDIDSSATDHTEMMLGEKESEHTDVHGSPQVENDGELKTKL

[2] = molecular target: T2, Oatp2 (Solute carrier organic anion transporter family member 1A4) (Rattus norvegicus, UniProt O35913); experiment: TP_TRANSPORTER: inhibition of Digoxin uptake (Digoxin: 0.05 uM, Verapamil: 1000 uM) in Oatp2-expressing LLC-PK1 cells; format: functional, cell-based; set-up: scale not given: the % may be the effect or the level left; details: pig, probe Digoxin, read-out: Activity
T2 sequence (O35913 whole entry): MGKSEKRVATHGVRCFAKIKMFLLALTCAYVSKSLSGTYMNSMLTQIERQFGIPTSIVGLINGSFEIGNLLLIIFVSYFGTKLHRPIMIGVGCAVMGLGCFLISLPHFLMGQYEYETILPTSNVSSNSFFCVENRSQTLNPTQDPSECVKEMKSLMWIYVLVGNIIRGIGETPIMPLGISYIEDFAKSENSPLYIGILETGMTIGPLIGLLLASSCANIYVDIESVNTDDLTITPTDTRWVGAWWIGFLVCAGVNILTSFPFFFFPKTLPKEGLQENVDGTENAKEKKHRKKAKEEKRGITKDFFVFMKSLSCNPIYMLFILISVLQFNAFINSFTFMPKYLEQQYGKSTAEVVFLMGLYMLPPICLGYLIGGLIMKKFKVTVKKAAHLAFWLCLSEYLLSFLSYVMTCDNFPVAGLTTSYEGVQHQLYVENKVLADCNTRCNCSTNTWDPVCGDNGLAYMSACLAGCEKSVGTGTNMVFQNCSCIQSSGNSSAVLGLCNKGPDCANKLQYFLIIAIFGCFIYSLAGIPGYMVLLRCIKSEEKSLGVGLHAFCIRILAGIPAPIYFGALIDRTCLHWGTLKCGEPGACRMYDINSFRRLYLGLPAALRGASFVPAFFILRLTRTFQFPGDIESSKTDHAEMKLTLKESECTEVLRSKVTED

[3] = molecular target: T1, Oatp1 (Solute carrier organic anion transporter family member 1A1); experiment: TP_TRANSPORTER: inhibition of E217betaG uptake (E217betaG: 0.1 uM, Ketoprofen: 1000 uM) in Oatp1-expressing LLC-PK1 cells; format: functional, cell-based; set-up: scale not given: the % may be the effect or the level left; details: pig, probe E217betaG, read-out: Activity
[4] = molecular target: T2, Oatp2 (Solute carrier organic anion transporter family member 1A4); experiment: TP_TRANSPORTER: inhibition of Digoxin uptake (Digoxin: 0.05 uM, Ketoprofen: 1000 uM) in Oatp2-expressing LLC-PK1 cells; format: functional, cell-based; set-up: scale not given: the % may be the effect or the level left; details: pig, probe Digoxin, read-out: Activity
[5] = molecular target: T2, Oatp2 (Solute carrier organic anion transporter family member 1A4); experiment: TP_TRANSPORTER: inhibition of Digoxin uptake (Digoxin: 0.05 uM, Corticosterone: 100 uM) in Oatp2-expressing LLC-PK1 cells; format: functional, cell-based; set-up: scale not given: the % may be the effect or the level left; details: pig, probe Digoxin, read-out: Activity
[6] = molecular target: T3, Solute carrier organic anion transporter family member 1A4 (Rattus norvegicus, UniProt O35913); experiment: TP_TRANSPORTER: inhibition of Digoxin uptake in Oatp2-expressing LLC-PK1 cells; format: functional, cell-based
T3 sequence (O35913 whole entry): T2 sequence (O35913 whole entry)

[7] = molecular target: T4, Solute carrier organic anion transporter family member 1A1 (Rattus norvegicus, UniProt P46720); experiment: TP_TRANSPORTER: inhibition of E217betaG uptake in Oatp1-expressing LLC-PK1 cells; format: functional, cell-based
T4 sequence (P46720 whole entry): T1 sequence (P46720 whole entry)

[8] = molecular target: T1, Oatp1 (Solute carrier organic anion transporter family member 1A1); experiment: TP_TRANSPORTER: inhibition of E217betaG uptake (E217betaG: 0.1 uM, Deoxycorticosterone: 100 uM) in Oatp1-expressing LLC-PK1 cells; format: functional, cell-based; set-up: scale not given: the % may be the effect or the level left; details: pig, probe E217betaG, read-out: Activity
[9] = molecular target: T2, Oatp2 (Solute carrier organic anion transporter family member 1A4); experiment: TP_TRANSPORTER: inhibition of Digoxin uptake (Digoxin: 0.05 uM, Deoxycorticosterone: 100 uM) in Oatp2-expressing LLC-PK1 cells; format: functional, cell-based; set-up: scale not given: the % may be the effect or the level left; details: pig, probe Digoxin, read-out: Activity
[10] = molecular target: T2, Oatp2 (Solute carrier organic anion transporter family member 1A4); experiment: TP_TRANSPORTER: inhibition of Digoxin uptake (Digoxin: 0.05 uM, Tolbutamide: 1000 uM) in Oatp2-expressing LLC-PK1 cells; format: functional, cell-based; set-up: scale not given: the % may be the effect or the level left; details: pig, probe Digoxin, read-out: Activity
[11] = molecular target: T1, Oatp1 (Solute carrier organic anion transporter family member 1A1); experiment: TP_TRANSPORTER: inhibition of E217betaG uptake (E217betaG: 0.1 uM, Tolbutamide: 1000 uM) in Oatp1-expressing LLC-PK1 cells; format: functional, cell-based; set-up: scale not given: the % may be the effect or the level left; details: pig, probe E217betaG, read-out: Activity
[12] = molecular target: T2, Oatp2 (Solute carrier organic anion transporter family member 1A4); experiment: TP_TRANSPORTER: inhibition of Digoxin uptake (Digoxin: 0.05 uM, Indomethacin: 1000 uM) in Oatp2-expressing LLC-PK1 cells; format: functional, cell-based; set-up: scale not given: the % may be the effect or the level left; details: pig, probe Digoxin, read-out: Activity
[13] = molecular target: T1, Oatp1 (Solute carrier organic anion transporter family member 1A1); experiment: TP_TRANSPORTER: inhibition of E217betaG uptake (E217betaG: 0.1 uM, Indomethacin: 1000 uM) in Oatp1-expressing LLC-PK1 cells; format: functional, cell-based; set-up: scale not given: the % may be the effect or the level left; details: pig, probe E217betaG, read-out: Activity
[14] = molecular target: T1, Oatp1 (Solute carrier organic anion transporter family member 1A1); experiment: in vitro; details: pig, Oatp1-expressing LLC-PK1 cells, probe E217betaG
[15] = molecular target: T2, Oatp2 (Solute carrier organic anion transporter family member 1A4); experiment: in vitro; details: pig, Oatp2-expressing LLC-PK1 cells, probe Digoxin
[16] = molecular target: T1, Oatp1 (Solute carrier organic anion transporter family member 1A1); experiment: TP_TRANSPORTER: inhibition of E217betaG uptake (E217betaG: 0.1 uM, Glibenclamide: 1000 uM) in Oatp1-expressing LLC-PK1 cells; format: functional, cell-based; set-up: scale not given: the % may be the effect or the level left; details: pig, probe E217betaG, read-out: Activity
[17] = molecular target: T2, Oatp2 (Solute carrier organic anion transporter family member 1A4); experiment: TP_TRANSPORTER: inhibition of Digoxin uptake (Digoxin: 0.05 uM, Glibenclamide: 1000 uM) in Oatp2-expressing LLC-PK1 cells; format: functional, cell-based; set-up: scale not given: the % may be the effect or the level left; details: pig, probe Digoxin, read-out: Activity
[18] = substrate: C[C@]12CC[C@@H]3c4ccc(O)cc4CC[C@H]3[C@@H]1CC[C@@H]2O[C@@H]1O[C@H](C(=O)O)[C@@H](O)[C@H](O)[C@H]1O; experiment: TP_TRANSPORTER: uptake in Oatp1-expressing LLC-PK1 cells; format: functional, cell-based
[19] = substrate: C[C@H]1O[C@@H](O[C@H]2[C@@H](O)C[C@H](O[C@H]3[C@@H](O)C[C@H](O[C@H]4CC[C@@]5(C)[C@H](CC[C@@H]6[C@@H]5C[C@@H](O)[C@]5(C)[C@@H](C7=CC(=O)OC7)CC[C@]65O)C4)O[C@@H]3C)O[C@@H]2C)C[C@H](O)[C@@H]1O; experiment: TP_TRANSPORTER: uptake in Oatp2-expressing LLC-PK1 cells; format: functional, cell-based

COc1ccc(CCN(C)CCCC(C#N)(c2ccc(OC)c(OC)c2)C(C)C)cc1OC (stereo not drawn)
activity at 1000 µM [1]: 3.93%
activity at 1000 µM [2]: 4.12%

CC(C(=O)O)c1cccc(C(=O)c2ccccc2)c1 (stereo not drawn) [KETOPROFEN]
activity at 1000 µM [3]: 6.89%
activity at 1000 µM [4]: 30.2%

C[C@]12C[C@H](O)[C@H]3[C@@H](CCC4=CC(=O)CC[C@@]43C)[C@@H]1CC[C@@H]2C(=O)CO [CORTICOSTERONE]
activity at 100 µM [5]: 32.9%

C=C[C@H]1C[N@@]2CC[C@H]1C[C@H]2[C@H](O)c1ccnc2ccc(OC)cc12 [QUININE]
Ki [6]: 3.81 µM

CO[C@H]1/C=C/O[C@@]2(C)Oc3c(C)c(O)c4c(O)c(c(/C=N/N5CCN(C)CC5)c(O)c4c3C2=O)NC(=O)/C(C)=C\C=C\[C@H](C)[C@H](O)[C@@H](C)[C@@H](O)[C@@H](C)[C@H](OC(C)=O)[C@@H]1C [RIFAMPIN]
Ki [7]: 18.2 µM
Ki [6]: 1.46 µM

CC(C)Cc1ccc(C(C)C(=O)O)cc1 (stereo not drawn) [IBUPROFEN]
Ki [7]: 126 µM
Ki [6]: 2430 µM

C=C[C@H]1C[N@@]2CC[C@H]1C[C@@H]2[C@@H](O)c1ccnc2ccc(OC)cc12 [QUINIDINE]
Ki [6]: 120 µM

C[C@]12CC[C@H]3[C@@H](CCC4=CC(=O)CC[C@@]43C)[C@@H]1CC[C@@H]2C(=O)CO [DESOXYCORTICOSTERONE]
activity at 100 µM [8]: 1.34%
activity at 100 µM [9]: 13.6%

CCCCNC(=O)NS(=O)(=O)c1ccc(C)cc1 [TOLBUTAMIDE]
activity at 1000 µM [10]: 47.3%
activity at 1000 µM [11]: 32.9%

COc1ccc2c(c1)c(CC(=O)O)c(C)n2C(=O)c1ccc(Cl)cc1 [INDOMETHACIN]
activity at 1000 µM [12]: 14.3%
activity at 1000 µM [13]: 1.16%

COc1ccc2cc([C@H](C)C(=O)O)ccc2c1 [NAPROXEN]
activity at 1000 µM [14]: 19.9%
activity at 1000 µM [15]: 52.2%

COc1ccc(Cl)cc1C(=O)NCCc1ccc(S(=O)(=O)NC(=O)NC2CCCCC2)cc1 [GLYBURIDE]
activity at 1000 µM [16]: 2.33%
activity at 1000 µM [17]: 1.61%

B1: Solute carrier organic anion transporter family member 1A1 (Rattus norvegicus) (protein)
chain: T1 sequence (P46720 whole entry)
Km [18]: 11.2 µM

B2: Solute carrier organic anion transporter family member 1A4 (Rattus norvegicus) (protein)
chain: T2 sequence (O35913 whole entry)
Km [19]: 0.279 µM
